Measured values as given in PubChem BioAssay AID248 (DTP/NCI, 2004).
Where “and” joins values, the source holds several entries; their conditions need not be identical. Identical values can stand only once. Toxic doses and inconclusive results are not listed. No stated cut-off is given here; in the data, active means T/C of 150% or more; inactive means T/C below 125%.

Tested on: L1210 leukemia ip in BDF1 mice, survival T/C
Experiment: NCI In Vivo Anticancer Drug Screen. Data for tumor model L1210 Leukemia (intraperitoneal) in B6D2F1 (BDF1) mice
Conditions: endpoint: mean survival time, higher = longer survival
In short: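 In this screen, tumor-bearing mice given compound are compared to those given vehicle, and their survival values are reported as a treated-to-control quotient.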

[1] = dose: 100.0 mg/kg/injection, schedule: Q01DX001 (ip), vehicle: Klucel (hydroxypropylcellulose) (HPC)
[2] = dose: 200.0 mg/kg/injection, schedule: Q01DX001 (ip), vehicle: Klucel (hydroxypropylcellulose) (HPC)
[3] = dose: 400.0 mg/kg/injection, schedule: Q01DX001 (ip), vehicle: Klucel (hydroxypropylcellulose) (HPC)
[4] = dose: 50.0 mg/kg/injection, schedule: Q01DX009 (ip), vehicle: saline
[5] = dose: 100.0 mg/kg/injection, schedule: Q01DX009 (ip), vehicle: saline
[6] = dose: 100.0 mg/kg/injection, schedule: Q04DX003 (ip), vehicle: Klucel (hydroxypropylcellulose) (HPC)
[7] = dose: 100.0 mg/kg/injection, schedule: Q01DX001 (ip), vehicle: saline
[8] = dose: 200.0 mg/kg/injection, schedule: Q01DX001 (ip), vehicle: saline
[9] = dose: 100.0 mg/kg/injection, schedule: Q01DX009 (ip), vehicle: saline with Tween-80
[10] = dose: 200.0 mg/kg/injection, schedule: Q01DX009 (ip), vehicle: saline with Tween-80
[11] = dose: 400.0 mg/kg/injection, schedule: Q01DX009 (ip), vehicle: saline with Tween-80
[12] = dose: 50.0 mg/kg/injection, schedule: Q01DX001 (ip), vehicle: saline
[13] = dose: 100.0 mg/kg/injection, schedule: Q01DX001 (ip), vehicle: carboxymethylcellulose (CMC)
[14] = dose: 200.0 mg/kg/injection, schedule: Q01DX001 (ip), vehicle: carboxymethylcellulose (CMC)
[15] = dose: 400.0 mg/kg/injection, schedule: Q01DX001 (ip), vehicle: carboxymethylcellulose (CMC)
[16] = dose: 25.0 mg/kg/injection, schedule: Q04DX003 (ip), vehicle: Klucel (hydroxypropylcellulose) (HPC)
[17] = dose: 50.0 mg/kg/injection, schedule: Q04DX003 (ip), vehicle: Klucel (hydroxypropylcellulose) (HPC)
[18] = dose: 100.0 mg/kg/injection, schedule: Q04DX003 (ip), vehicle: saline with Tween-80
[19] = dose: 200.0 mg/kg/injection, schedule: Q04DX003 (ip), vehicle: saline with Tween-80
[20] = dose: 400.0 mg/kg/injection, schedule: Q04DX003 (ip), vehicle: saline with Tween-80
[21] = dose: 25.0 mg/kg/injection, schedule: Q04DX002 (ip), vehicle: saline
[22] = dose: 50.0 mg/kg/injection, schedule: Q04DX002 (ip), vehicle: saline
[23] = dose: 100.0 mg/kg/injection, schedule: Q04DX002 (ip), vehicle: saline
[24] = dose: 100.0 mg/kg/injection, schedule: Q04DX002 (ip), vehicle: Klucel (hydroxypropylcellulose) (HPC)
[25] = dose: 200.0 mg/kg/injection, schedule: Q04DX002 (ip), vehicle: Klucel (hydroxypropylcellulose) (HPC)

Measured: T/C

Nc1nccc2c1ncn2C1OC(CO)C(O)C1O (stereo not given)
inactive: dose: 100.0 mg/kg/injection, schedule: Q01DX005 (ip), vehicle: saline 108 % of control | dose: 200.0 mg/kg/injection, schedule: Q01DX005 (ip), vehicle: saline 109 % of control

C/C(=C/CC1CCC2C3=CCC4CC(O)CCC4(C)C3CCC12C)C(C)C(C)C (stereo not given)
inactive: [1] 102 % of control | [2] 98 % of control | [3] 88 % of control

COC(=O)C(CCl)NC(=O)c1ccccc1 (stereo not given)
inactive: [4] 105 % of control | [5] 90 % of control | [6] 102 % of control | dose: 200.0 mg/kg/injection, schedule: Q01DX009 (ip), vehicle: saline 95 % of control | dose: 200.0 mg/kg/injection, schedule: Q04DX003 (ip), vehicle: Klucel (hydroxypropylcellulose) (HPC) 96 % of control

CCC(N)C(=O)O (stereo not given)
inactive: [7] 108 % of control | [8] 102 % of control | dose: 400.0 mg/kg/injection, schedule: Q01DX001 (ip), vehicle: saline 94 % of control

Cc1nc(SCc2ccc(Cl)cc2)[nH]c(=O)c1CCO
inactive: [9] 92 % of control | [10] 92 % of control | [11] 92 % of control

N#CCC(N)C(=O)O (stereo not given)
inactive: [12] 90 % of control | [7] 96 % of control | [8] 96 % of control

CN(C)Cc1ccc2ccccc2c1C(O)(c1ccccc1)c1ccccc1
inactive: [13] 96 % of control | [14] 98 % of control | [15] 96 % of control

O=C(O)c1cc(Cl)c(Cl)s1
inactive: [16] 101 % of control | [17] 100 % of control | [6] 103 % of control

CC1(CC(O)(C(F)(F)F)C(F)(F)F)NC(=O)NC1=O (stereo not given)
inactive: [9] 97 % of control | [18] 93 % of control | [10] 99 % of control | [19] 96 % of control | [11] 99 % of control | [20] 91 % of control

CCN(CC)CCCC(C)Nc1ccnc2cc(Cl)ccc12 (stereo not given)
inactive: dose: 25.0 mg/kg/injection, schedule: Q01DX001 (ip), vehicle: saline 103 % of control | dose: 25.0 mg/kg/injection, schedule: Q01DX009 (ip), vehicle: saline 100 % of control | [21] 95 % of control | [12] 104 % of control | [4] 97 % of control and 98 % of control | [22] 95 % of control | dose: 50.0 mg/kg/injection, schedule: Q04DX003 (ip), vehicle: saline 105 % of control | [7] 118 % of control and 92 % of control | [5] 98 % of control | [23] 95 % of control | dose: 100.0 mg/kg/injection, schedule: Q04DX003 (ip), vehicle: saline 108 % of control

COc1ccc(CCCCO)cc1
inactive: dose: 100.0 mg/kg/injection, schedule: Q01DX001 (ip), vehicle: acetone 96 % of control | dose: 200.0 mg/kg/injection, schedule: Q01DX001 (ip), vehicle: acetone 102 % of control | dose: 400.0 mg/kg/injection, schedule: Q01DX001 (ip), vehicle: acetone 86 % of control

O=C(O)C(=C(c1ccccc1)c1ccccc1)c1cccc2ccccc12
inactive: dose: 50.0 mg/kg/injection, schedule: Q04DX002 (ip), vehicle: Klucel (hydroxypropylcellulose) (HPC) 98 % of control | dose: 100.0 mg/kg/injection, schedule: Q01DX009 (ip), vehicle: Klucel (hydroxypropylcellulose) (HPC) 101 % of control | [24] 100 % of control | [25] 100 % of control

Cc1cc(OCCO)ccc1Cl
inactive: [24] 108 % of control | [25] 108 % of control | dose: 400.0 mg/kg/injection, schedule: Q04DX002 (ip), vehicle: Klucel (hydroxypropylcellulose) (HPC) 108 % of control

c1ccc([S+]([CH2][Hg][CH2][S+](c2ccccc2)c2ccccc2)c2ccccc2)cc1
inactive: dose: 5.0 mg/kg/injection, schedule: Q01DX001 (ip), vehicle: saline 92 % of control | dose: 10.0 mg/kg/injection, schedule: Q01DX001 (ip), vehicle: saline 109 % of control | dose: 20.0 mg/kg/injection, schedule: Q01DX001 (ip), vehicle: saline 119 % of control

CC(=O)OC1C(C2CSC(=O)O2)OC2OC(C)(C)OC21 (stereo not given)
inactive: [21] 89 % of control | [22] 103 % of control | [23] 92 % of control

O=c1cc(-c2c(O)cc(O)cc2O)oc2cc(O)cc(O)c12
inactive: [13] 94 % of control | [14] 94 % of control | [15] 92 % of control

CCOC(=O)C(C#N)C(C(C)=O)C(=O)OCC (stereo not given)
inactive: dose: 25.0 mg/kg/injection, schedule: Q01DX009 (ip), vehicle: saline sonified 120 % of control | dose: 50.0 mg/kg/injection, schedule: Q01DX009 (ip), vehicle: saline sonified 124 % of control | dose: 75.0 mg/kg/injection, schedule: Q01DX001 (ip), vehicle: other 94 % of control | dose: 100.0 mg/kg/injection, schedule: Q01DX009 (ip), vehicle: saline sonified 104 % of control | dose: 100.0 mg/kg/injection, schedule: Q04DX003 (ip), vehicle: saline sonified 110 % of control | dose: 150.0 mg/kg/injection, schedule: Q01DX001 (ip), vehicle: other 102 % of control | dose: 300.0 mg/kg/injection, schedule: Q01DX001 (ip), vehicle: other 100 % of control

NC(=S)N/N=C/c1nccn1Cc1ccccc1
inactive: [1] 104 % of control | dose: 100.0 mg/kg/injection, schedule: Q01DX001 (ip), vehicle: other 101 % of control | [2] 101 % of control | dose: 200.0 mg/kg/injection, schedule: Q01DX001 (ip), vehicle: other 96 % of control | [3] 104 % of control

O=C(/C=C/C=[N+](/[O-])O)c1cncc(F)c1
inactive: [23] 93 % of control | dose: 200.0 mg/kg/injection, schedule: Q04DX002 (ip), vehicle: saline 101 % of control | dose: 400.0 mg/kg/injection, schedule: Q04DX002 (ip), vehicle: saline 93 % of control

COC(OC)c1nc(N)nc(N)c1-c1ccc(F)cc1
inactive: [18] 94 % of control | [19] 96 % of control | [20] 96 % of control

CCN(CC)S(=O)(=O)c1ccc(Nc2nc(Cl)nc(Cl)n2)cc1
inactive: dose: 12.5 mg/kg/injection, schedule: Q01DX009 (ip), vehicle: Klucel (hydroxypropylcellulose) (HPC) 113 % of control | dose: 12.5 mg/kg/injection, schedule: Q04DX003 (ip), vehicle: Klucel (hydroxypropylcellulose) (HPC) 102 % of control | dose: 25.0 mg/kg/injection, schedule: Q01DX009 (ip), vehicle: Klucel (hydroxypropylcellulose) (HPC) 97 % of control | [16] 100 % of control | dose: 50.0 mg/kg/injection, schedule: Q01DX009 (ip), vehicle: Klucel (hydroxypropylcellulose) (HPC) 113 % of control | [17] 95 % of control
